Reference: US8952024B2, “Herbicidal pyrimidone derivatives” (E I du Pont de Nemours and Company, priority 2009, dated 2015)

Legend:
Test in all cases: Test C plant response
Type in all cases: in vivo
Settings in all cases: Postemergence, scale 0 to 100
[1] = test system: field violet (Viola arvensis)
Method in brief: (§1)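 Visual response scores run from 0 (no effect) to 100 (complete control), assigned 14 days after treatment by comparison with untreated plants. Compounds were applied in a surfactant-containing non-phytotoxic solvent mixture.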

kochia (Kochia scoparia) = test system: kochia (Kochia scoparia)
Method in brief: as §1

[2] = test system: blackgrass (Alopecurus myosuroides)
Method in brief: as §1

[3] = test system: galium (catchweed bedstraw, Galium aparine)
Method in brief: as §1

[4] = test system: bromegrass (downy bromegrass, Bromus tectorum)
Method in brief: as §1

[5] = test system: spring wheat (Triticum aestivum)
Method in brief: as §1

[6] = test system: deadnettle (henbit deadnettle, Lamium amplexicaule)
Method in brief: as §1

[7] = test system: buckwheat (wild buckwheat, Polygonum convolvulus)
Method in brief: as §1

wild oat (Avena fatua) = test system: wild oat (Avena fatua)
Method in brief: as §1

[8] = test system: bluegrass (annual bluegrass, Poa annua)
Method in brief: as §1

[9] = test system: winter barley (Hordeum vulgare)
Method in brief: as §1

[10] = test system: Italian ryegrass (Lolium multiflorum)
Method in brief: as §1

[11] = test system: green foxtail (Setaria viridis)
Method in brief: as §1

[12] = test system: oilseed rape (Brassica napus)
Method in brief: as §1

[13] = test system: wild mustard (Sinapis arvensis)
Method in brief: as §1

[14] = test system: Russian thistle (Salsola iberica)
Method in brief: as §1

[15] = test system: windgrass (Apera spica-venti)
Method in brief: as §1

[16] = test system: winter wheat (Triticum aestivum)
Method in brief: as §1

[17] = test system: wild radish (Raphanus raphanistrum)
Method in brief: as §1

[18] = test system: spring barley (Hordeum vulgare)
Method in brief: as §1

Cc1ccccc1-n1c(-c2ccccc2)ncc(C(=O)C2=C(O)CCCC2=O)c1=O [Compound 12]
Plant response rating: Field Violet ([1]; 31 g ai/ha): 35
Plant response rating: Field Violet ([1]; 16 g ai/ha): 35
Plant response rating: Field Violet ([1]; 62 g ai/ha): 40
Plant response rating: Field Violet ([1]; 125 g ai/ha): 40
Plant response rating: Kochia (kochia (Kochia scoparia); 31 g ai/ha): 10
Plant response rating: Kochia (kochia (Kochia scoparia); 16 g ai/ha): 0
Plant response rating: Kochia (kochia (Kochia scoparia); 62 g ai/ha): 35
Plant response rating: Kochia (kochia (Kochia scoparia); 125 g ai/ha): 75
Plant response rating: Blackgrass ([2]; 31 g ai/ha): 20
Plant response rating: Blackgrass ([2]; 16 g ai/ha): 0
Plant response rating: Blackgrass ([2]; 62 g ai/ha): 30
Plant response rating: Blackgrass ([2]; 125 g ai/ha): 40
Plant response rating: Galium ([3]; 31 g ai/ha): 50
Plant response rating: Galium ([3]; 16 g ai/ha): 5
Plant response rating: Galium ([3]; 62 g ai/ha): 60
Plant response rating: Galium ([3]; 125 g ai/ha): 80
Plant response rating: Bromegrass, Downy ([4]; 31 g ai/ha): 10
Plant response rating: Bromegrass, Downy ([4]; 16 g ai/ha): 0
Plant response rating: Bromegrass, Downy ([4]; 62 g ai/ha): 15
Plant response rating: Bromegrass, Downy ([4]; 125 g ai/ha): 20
Plant response rating: Wheat, Spring ([5]; 31 g ai/ha): 0
Plant response rating: Wheat, Spring ([5]; 16 g ai/ha): 0
Plant response rating: Wheat, Spring ([5]; 62 g ai/ha): 0
Plant response rating: Wheat, Spring ([5]; 125 g ai/ha): 0
Plant response rating: Deadnettle ([6]; 31 g ai/ha): 100
Plant response rating: Deadnettle ([6]; 16 g ai/ha): 100
Plant response rating: Deadnettle ([6]; 62 g ai/ha): 100
Plant response rating: Deadnettle ([6]; 125 g ai/ha): 100
Plant response rating: Buckwheat, Wild ([7]; 31 g ai/ha): 15
Plant response rating: Buckwheat, Wild ([7]; 16 g ai/ha): 10
Plant response rating: Buckwheat, Wild ([7]; 62 g ai/ha): 50
Plant response rating: Buckwheat, Wild ([7]; 125 g ai/ha): 50
Plant response rating: Oat, Wild (wild oat (Avena fatua); 31 g ai/ha): 15
Plant response rating: Oat, Wild (wild oat (Avena fatua); 16 g ai/ha): 0
Plant response rating: Oat, Wild (wild oat (Avena fatua); 62 g ai/ha): 15
Plant response rating: Oat, Wild (wild oat (Avena fatua); 125 g ai/ha): 15
Plant response rating: Bluegrass ([8]; 31 g ai/ha): 20
Plant response rating: Bluegrass ([8]; 16 g ai/ha): 10
Plant response rating: Bluegrass ([8]; 62 g ai/ha): 30
Plant response rating: Bluegrass ([8]; 125 g ai/ha): 40
Plant response rating: Barley, Winter ([9]; 31 g ai/ha): 0
Plant response rating: Barley, Winter ([9]; 16 g ai/ha): 0
Plant response rating: Barley, Winter ([9]; 62 g ai/ha): 0
Plant response rating: Barley, Winter ([9]; 125 g ai/ha): 0
Plant response rating: Ryegrass, Italian ([10]; 31 g ai/ha): 0
Plant response rating: Ryegrass, Italian ([10]; 16 g ai/ha): 0
Plant response rating: Ryegrass, Italian ([10]; 62 g ai/ha): 0
Plant response rating: Ryegrass, Italian ([10]; 125 g ai/ha): 0
Plant response rating: Foxtail, Green ([11]; 31 g ai/ha): 60
Plant response rating: Foxtail, Green ([11]; 16 g ai/ha): 50
Plant response rating: Foxtail, Green ([11]; 62 g ai/ha): 80
Plant response rating: Foxtail, Green ([11]; 125 g ai/ha): 90
Plant response rating: Oilseed Rape ([12]; 31 g ai/ha): 70
Plant response rating: Oilseed Rape ([12]; 16 g ai/ha): 50
Plant response rating: Oilseed Rape ([12]; 62 g ai/ha): 80
Plant response rating: Oilseed Rape ([12]; 125 g ai/ha): 95
Plant response rating: Mustard, Wild ([13]; 31 g ai/ha): 95
Plant response rating: Mustard, Wild ([13]; 16 g ai/ha): 80
Plant response rating: Mustard, Wild ([13]; 62 g ai/ha): 95
Plant response rating: Mustard, Wild ([13]; 125 g ai/ha): 95
Plant response rating: Russian Thistle ([14]; 31 g ai/ha): 60
Plant response rating: Russian Thistle ([14]; 16 g ai/ha): 60
Plant response rating: Russian Thistle ([14]; 62 g ai/ha): 60
Plant response rating: Russian Thistle ([14]; 125 g ai/ha): 70
Plant response rating: Windgrass ([15]; 31 g ai/ha): 20
Plant response rating: Windgrass ([15]; 16 g ai/ha): 5
Plant response rating: Windgrass ([15]; 125 g ai/ha): 50
Plant response rating: Wheat, Winter ([16]; 31 g ai/ha): 0
Plant response rating: Wheat, Winter ([16]; 16 g ai/ha): 0
Plant response rating: Wheat, Winter ([16]; 62 g ai/ha): 0
Plant response rating: Wheat, Winter ([16]; 125 g ai/ha): 10
Plant response rating: Radish, Wild ([17]; 31 g ai/ha): 80
Plant response rating: Radish, Wild ([17]; 16 g ai/ha): 60
Plant response rating: Radish, Wild ([17]; 62 g ai/ha): 90
Plant response rating: Radish, Wild ([17]; 125 g ai/ha): 90
Plant response rating: Barley, Spring ([18]; 31 g ai/ha): 0
Plant response rating: Barley, Spring ([18]; 16 g ai/ha): 0
Plant response rating: Barley, Spring ([18]; 62 g ai/ha): 0
Plant response rating: Barley, Spring ([18]; 125 g ai/ha): 0
